≈ marks a conversion by molar mass, not a printed value. Entries after “also recorded” stand apart in the source; their conditions may differ. Structures can show the parent of a compound that is named as a salt.

The source of these data is patent US4438091A, “Bromhexine delayed-release pharmaceutical form” (Dr. Karl Thomae GmbH, priority 1981, dated 1984).

A short description of series [1]: Absorption of bromhexine from the intestinal tract (preliminary tests in vivo). Particulars: for absorption from the intestinal tract: micronized, introduced by preparation resistant to gastric juices. An excerpt: In view of the obvious advantages of producing a delayed-release form of bromhexine, there has been no shortage of attempts to produce such a preparation. […] In cases such as this, success is often achieved if the active substance is mixed with an emulsifier which then releases the active substance in solubilized form in the intestinal juices.

A short description of series [2]: Solubility of bromhexine base in phosphate buffer / aqueous medium. Particulars: for solubility: aqueous buffer. Format: physicochemical. An excerpt: If, for example, bromhexine hydrochloride is made into the form of a matrix-type delayed-release tablet (Example 11), bromhexine can only be released, in dissolved form, from this preparation as long as the tablet is in the acidic medium of the stomach. […] The intestinal juices momentarily buffer the acid salts to form a substantially insoluble bromhexine base.

The conditions of series [3]: cited from earlier work.

As to `CN(Cc1cc(Br)cc(Br)c1N)C1CCCCC1` [micronized bromhexine], in series [1], the “absorption from the intestinal tract” value is “not absorbed”.

Take `CN(Cc1cc(Br)cc(Br)c1N)C1CCCCC1` [bromhexine, N-cyclohexyl-N-methyl-(2-amino-3,5-dibromobenzyl)-amine]: the Solubility in water result in series [2] (above a pH of 4 / from pH 4.0) is “virtually insoluble in water; also recorded: virtually insoluble from pH 4.0”. For the same compound, the “Solubility in aqueous medium” value in series [2] (acidic range) is “soluble only in the acidic range”. Further, the solubility in series [2] (pH 4.5, phosphate buffer) came to 650 µg/mL (≈ 1730 µM); in series [2] (pH 5.0, phosphate buffer), 150 µg/mL (≈ 399 µM); in series [2] (pH 6.0, phosphate buffer), 30 µg/mL (≈ 79.8 µM); in series [2] (pH 6.5, phosphate buffer) it was 10 µg/mL (≈ 26.6 µM); in series [2] (pH 7.0, phosphate buffer) it was 3 µg/mL (≈ 7.98 µM). For the same compound, the “absorption rate along the intestine” value in series [1] (dissolved bromhexine in various intestinal sections, duodenum to colon) was “decreases sharply from the duodenum to the colon; also recorded: absorbed particularly quickly in the uppermost section of the intestines; also recorded: decreases significantly in the lower intestinal regions”. Moreover, the “frequency of coughing, total number of coughing spasms and intensity of the cough” value in series [3] (in vivo) is on record as “favorably affected”. In addition, in series [3] (pathological change in secretion, single or double blind testing), the “therapeutic effect in diseases of the respiratory tract” value was “often been confirmed”. The breathing result in series [3] (patients' finding) was “breathing is eased”.

For `CN(Cc1cc(Br)cc(Br)c1N)C1CCCCC1` [micronized bromhexine hydrochloride], the “absorption from the intestinal tract” value in series [1] was “did not result in any appreciable absorption”.

By solubility is commonly meant the dissolved amount per volume that the medium holds.
